Measured values from US12150995B2, “IRAK degraders and uses thereof” (Kymera Therapeutics, Inc., priority 2020, dated 2024).

molecular target: T1, IRAK4 (Homo sapiens, UniProt Q9NWZ3); experiment: IRAK4 MSD Degradation in OCI-LY10; assay type: cell-based; conditions: OCI-LY10 cells, Meso Scale Discovery, incubated 4 to 24 hours
T1 construct: endogenous in cells; host or cells: OCI-LY10
T1 sequence (Q9NWZ3 1-460): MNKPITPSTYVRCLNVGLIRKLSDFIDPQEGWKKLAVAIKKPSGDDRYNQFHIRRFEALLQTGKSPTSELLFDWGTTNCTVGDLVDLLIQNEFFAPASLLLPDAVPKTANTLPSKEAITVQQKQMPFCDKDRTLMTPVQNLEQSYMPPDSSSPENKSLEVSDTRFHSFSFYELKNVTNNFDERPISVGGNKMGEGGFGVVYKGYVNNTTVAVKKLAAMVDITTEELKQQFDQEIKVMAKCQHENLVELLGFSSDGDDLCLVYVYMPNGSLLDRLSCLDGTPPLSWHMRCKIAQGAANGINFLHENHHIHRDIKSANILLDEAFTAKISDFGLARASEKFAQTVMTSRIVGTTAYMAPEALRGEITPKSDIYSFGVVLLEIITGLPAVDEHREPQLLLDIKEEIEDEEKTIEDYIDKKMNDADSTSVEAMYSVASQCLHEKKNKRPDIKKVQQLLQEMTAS
Method in brief: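 OCI-LY10 cells (300,000/well) exposed to an 8-point 1:3 series from a top concentration of 1 to 10 μM for 4 to 24 h at 37 °C. IRAK4 remaining in RIPA lysates quantified by MSD sandwich immunoassay; DC50 from a three-parameter logistic fit.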

| DC50 [nM] | SMILES |
| --- | --- |
| 10 to 50 | COc1cc2nc([C@H]3CC[C@H](CN4CCN(c5cccc6c(N7CCC(=O)NC7=O)cncc56)CC4)CC3)sc2cc1NC(=O)c1cccc(C(F)(F)F)n1 [I-223] |
| < 10 | CC(C)(N)c1cc2nn([C@H]3CC[C@H](CN4C5CCC4CN(c4cccc6c(N7CCC(=O)NC7=O)cncc46)C5)CC3)cc2cc1NC(=O)c1cccc(C(F)(F)F)n1 [I-227] |
| < 10 | CC(C)(O)c1cc2nn([C@H]3CC[C@H](CN4C[C@H]5C[C@@H]4CN5c4cccc5c(N6CCC(=O)NC6=O)cncc45)CC3)cc2cc1NC(=O)c1cccc(C(F)(F)F)n1 [I-229] |
| 50 to 100 | COc1cc2nc([C@H]3C[C@H](CN4CCC(c5cccc6c5n(C)c(=O)n6C5CCC(=O)NC5=O)CC4)C3)sc2cc1NC(=O)c1cccc(C(F)(F)F)n1 (some centres unmarked) [I-235] |
| 10 to 50 | COc1cc2nn(C3CCN(C[C@H]4CC[C@H](c5cccc6c5n(C)c(=O)n6C5CCC(=O)NC5=O)CC4)CC3)cc2cc1NC(=O)c1cccc(C(F)(F)F)n1 (some centres unmarked) [I-237] |
| < 10 | CN(C[C@H]1CC[C@H](n2cc3cc(NC(=O)c4cccc(C(F)(F)F)n4)c(C#N)cc3n2)CC1)C1CCN(c2cccc3c2n(C)c(=O)n3C2CCC(=O)NC2=O)CC1 (some centres unmarked) [I-239] |
| < 10 | Cn1c(=O)n(C2CCC(=O)NC2=O)c2cccc(C3CCN(C[C@H]4CC[C@H](n5cc6cc(NC(=O)c7cccc(C(F)(F)F)n7)cc(F)c6n5)CC4)CC3)c21 (some centres unmarked) [I-240] |
| > 200 | O=C1CCN(c2cncc3cc(C4CCN(C[C@H]5CC[C@H](c6nc7cnc(NC(=O)c8cccc(C(F)(F)F)n8)cc7s6)CC5)CC4)ccc23)C(=O)N1 [I-241] |
| < 10 | Cn1c(=O)n(C2CCC(=O)NC2=O)c2cccc(C3CCN(C[C@H]4CC[C@H](c5cc6cc(NC(=O)c7cccc(C(F)(F)F)n7)ccn6n5)CC4)CC3)c21 (some centres unmarked) [I-242] |
| > 200 | COc1ccc2c(c1C1CCN(C[C@H]3CC[C@H](n4cc5cc(NC(=O)c6cccc(C(F)(F)F)n6)ncc5n4)CC3)CC1)n(C)c(=O)n2C1CCC(=O)N(C)C1=O (some centres unmarked) [I-245] |
| 10 to 50 | COc1cc2nn([C@H]3CC[C@H](CN4CCN(c5cccc6c5n(C)c(=O)n6C5CCC(=O)NC5=O)C[C@@H]4C)CC3)cc2cc1NC(=O)c1cccc(C(F)(F)F)n1 (some centres unmarked) [I-246] |
| < 10 | C[C@H]1CN(c2cccc3c2n(C)c(=O)n3C2CCC(=O)NC2=O)CCN1C[C@H]1CC[C@H](n2cc3cc(NC(=O)c4cccc(C(F)(F)F)n4)ccc3n2)CC1 (some centres unmarked) [I-248] |
| < 10 | CCn1c(=O)n(C2CCC(=O)NC2=O)c2cccc(N3CCN(C[C@H]4CC[C@H](n5cc6cc(NC(=O)c7cccc(C(F)(F)F)n7)c(OC)cc6n5)CC4)CC3)c21 (some centres unmarked) [I-253] |
| < 10 | COc1cc2nn([C@H]3CC[C@H](CN4CCCN(c5cccc6c5n(C)c(=O)n6C5CCC(=O)NC5=O)CC4)CC3)cc2cc1NC(=O)c1cccc(C(F)(F)F)n1 (some centres unmarked) [I-255] |
| < 10 | COc1cc2nn([C@H]3CC[C@H](CN4CCN(c5cccc6c(N7CCC(=O)NC7=O)cncc56)[C@H](C)C4)CC3)cc2cc1NC(=O)c1cccc(C(F)(F)F)n1 [I-256] |
| 10 to 50 | Cc1cc2nn([C@H]3CC[C@H](CN4CCN(c5cccc6c(N7CCC(=O)NC7=O)cncc56)CC4)CC3)cc2cc1NC(=O)c1cccc(C(F)(F)F)n1 [I-261] |
| < 10 | COc1cc2nn([C@H]3CC[C@H](CN4CC=C(c5cccc6c5n(C)c(=O)n6C5CCC(=O)NC5=O)C4)CC3)cc2cc1NC(=O)c1cccc(C(F)(F)F)n1 (some centres unmarked) [I-266] |
| > 200 | CC(C)Nc1cc(-n2ccc3cc(F)cnc32)ncc1C(=O)N[C@H]1CC[C@H](CN2CCN(c3ccc4c(c3)n(C)c(=O)n4C3CCC(=O)NC3=O)CC2)CC1 (some centres unmarked) [I-267] |
| < 10 | COc1cc2nn([C@H]3CC[C@H](CN4CCN(C[C@H]5C[C@H](c6cccc7c(N8CCC(=O)NC8=O)cncc76)C5)CC4)CC3)cc2cc1NC(=O)c1cccc(C(F)(F)F)n1 [I-285] |
| < 10 | COc1cncc(C(=O)Nc2cc3cn([C@H]4CC[C@H](CN5CCN(c6cccc7c6n(C)c(=O)n7C6CCC(=O)NC6=O)CC5)CC4)nc3cc2OC)c1 (some centres unmarked) [I-287] |
| > 200 | COc1cc2nn([C@H]3CC[C@H](CN4CCCN(c5cccc6c(N7CCC(=O)NC7=O)cncc56)CC4)CC3)cc2cc1NC(=O)c1cncc(C#N)c1 [I-289] |
| 10 to 50 | CC(C)Nc1cc(-n2ccc3cc(F)cnc32)ncc1C(=O)N[C@H]1CC[C@H](CN2CCN(c3cccc4c3n(C)c(=O)n4C3CCC(=O)NC3=O)CC2)CC1 (some centres unmarked) [I-290] |
| < 10 | O=C1CCN(c2cncc3c(C4CCN(C[C@H]5CC[C@H](n6cc7cc(NC(=O)c8cccc(C(F)(F)F)n8)c(C(F)F)cc7n6)CC5)CC4)cccc23)C(=O)N1 [I-293] |
| 10 to 50 | CCOc1cc2nn([C@H]3CC[C@H](CN4CCN(c5cccc6c5n(C)c(=O)n6C5CCC(=O)NC5=O)CC4)CC3)cc2cc1NC(=O)c1cccc(C(F)(F)F)n1 (some centres unmarked) [I-294] |
| 10 to 50 | Cn1c(=O)n(C2CCC(=O)NC2=O)c2cccc(N3CCN(C[C@H]4CC[C@H](n5cc6cc(NC(=O)c7cccc(C(F)(F)F)n7)c(C7CC7)cc6n5)CC4)CC3)c21 (some centres unmarked) [I-296] |

The next lines start with the compound.

| SMILES | DC50 [nM] |
| --- | --- |
| CC(C)(O)c1cc2nn([C@H]3CC[C@H](CN4CCN(c5cccc6c(N7CCC(=O)NC7=O)cncc56)CC4)CC3)cc2cc1NC(=O)c1cccc(C(F)(F)F)n1 [I-224] | < 10 |
| Cn1c(=O)n(C2CCC(=O)NC2=O)c2cccc(N3C[C@@H]4C[C@H]3CN4C[C@H]3CC[C@H](n4cc5cc(NC(=O)c6cccc(C(F)(F)F)n6)c(C(C)(C)O)cc5n4)CC3)c21 (some centres unmarked) [I-225] | < 10 |
| C[C@@H]1CN(c2cccc3c2n(C)c(=O)n3C2CCC(=O)NC2=O)CCN1C[C@H]1CC[C@H](n2cc3cc(NC(=O)c4cccc(C(F)(F)F)n4)c(C(C)(C)O)cc3n2)CC1 (some centres unmarked) [I-226] | < 10 |
| CC(C)(O)c1cc2nn([C@H]3CC[C@H](CN4C5CC4CN(c4cccc6c(N7CCC(=O)NC7=O)cncc46)C5)CC3)cc2cc1NC(=O)c1cccc(C(F)(F)F)n1 [I-228] | < 10 |
| C[C@@H]1CN(c2cccc3c(N4CCC(=O)NC4=O)cncc23)CCN1C[C@H]1CC[C@H](n2cc3cc(NC(=O)c4cccc(C(F)(F)F)n4)c(C(C)(C)O)cc3n2)CC1 [I-230] | < 10 |
| CC(C)Nc1cc(-n2ccc3cc(C#N)cnc32)ncc1-c1cn([C@H]2CC[C@H](CN3CCN(c4cccc5c4n(C)c(=O)n5C4CCC(=O)NC4=O)CC3)CC2)nn1 (some centres unmarked) [I-231] | 10 to 50 |
| Cn1c(=O)n(C2CCC(=O)NC2=O)c2cccc(N3CC4CC(C3)N4C[C@H]3CC[C@H](n4cc5cc(NC(=O)c6cccc(C(F)(F)F)n6)c(C(C)(C)O)cc5n4)CC3)c21 (some centres unmarked) [I-232] | < 10 |
| COc1cc2nn([C@H]3CC[C@H](CN4CCN(c5cccc6c(N7CCC(=O)NC7=O)cncc56)[C@@H](C)C4)CC3)cc2cc1NC(=O)c1cccc(C(F)(F)F)n1 [I-233] | < 10 |
| CN(C[C@H]1CC[C@H](n2cc3cc(NC(=O)c4cccc(C(F)(F)F)n4)ncc3n2)CC1)C1CCN(c2cccc3c2n(C)c(=O)n3C2CCC(=O)NC2=O)CC1 (some centres unmarked) [I-238] | < 10 |
| COc1cc2nn([C@H]3CC[C@H](CN4CCN(c5cccc6c5n(C)c(=O)n6C5CCC(=O)NC5=O)C[C@H]4C)CC3)cc2cc1NC(=O)c1cccc(C(F)(F)F)n1 (some centres unmarked) [I-243] | < 10 |
| COc1cc2nn([C@H]3CC[C@H](CN4CC5(CN(Cc6cccc7c6n(C)c(=O)n7C6CCC(=O)NC6=O)C5)C4)CC3)cc2cc1NC(=O)c1cncc(C#N)c1 (some centres unmarked) [I-244] | 100 to 200 |
| Cn1c(=O)n(C2CCC(=O)NC2=O)c2cccc(C3CCN(C[C@H]4CC[C@H](n5cc6cc(NC(=O)c7ncc(Cl)s7)ccc6n5)CC4)CC3)c21 (some centres unmarked) [I-247] | > 200 |
| CN(C[C@H]1CC[C@H](n2cc3cc(NC(=O)c4cncc(C#N)c4)c(OC(F)(F)F)cc3n2)CC1)C1CCN(c2cccc3c2n(C)c(=O)n3C2CCC(=O)NC2=O)CC1 (some centres unmarked) [I-249] | > 200 |
| C[C@@H]1CN(C[C@H]2CC[C@H](n3cc4cc(NC(=O)c5cccc(C(F)(F)F)n5)c(C(C)(C)O)cc4n3)CC2)CCN1c1cccc2c(N3CCC(=O)NC3=O)cncc12 [I-257] | < 10 |
| COc1cc2nn([C@H]3CC[C@H](CN4C5CC4CN(c4cccc6c4n(C)c(=O)n6C4CCC(=O)NC4=O)C5)CC3)cc2cc1NC(=O)c1cncc(C#N)c1 (some centres unmarked) [I-258] | > 200 |
| COc1cc2nn([C@H]3CC[C@H](CN4CCN(c5cccc6c(N7CCC(=O)NC7=O)cncc56)CC4)CC3)cc2cc1NC(=O)c1cncc(C#N)c1 [I-259] | 10 to 50 |
| COc1cc2nn([C@H]3CC[C@H](CN4C5CCC4CN(c4cccc6c4n(C)c(=O)n6C4CCC(=O)NC4=O)C5)CC3)cc2cc1NC(=O)c1cncc(C#N)c1 (some centres unmarked) [I-262] | < 10 |
| CN(CCCN(C)[C@H]1C[C@H](Nc2cccc3c2C(=O)N(C2CCC(=O)NC2=O)C3=O)C1)C[C@H]1CC[C@H](n2cc3cc(NC(=O)c4cccc(C(F)(F)F)n4)c(C(C)(C)O)cc3n2)CC1 (some centres unmarked) [I-263] | 10 to 50 |
| N#Cc1cc2nn([C@H]3CC[C@H](CN4CCN(c5cccc6c(N7CCC(=O)NC7=O)cncc56)CC4)CC3)cc2cc1NC(=O)c1cccc(C(F)(F)F)n1 [I-288] | 10 to 50 |
| COc1cc2nn([C@H]3CC[C@H](CN4CC[C@@H](c5cccc6c(N7CCC(=O)NC7=O)cncc56)C4)CC3)cc2cc1NC(=O)c1cccc(C(F)(F)F)n1 [I-291] | 10 to 50 |
| COc1ccc2c(c1N1CCN(C[C@H]3CC[C@H](n4cc(-c5cnc(-n6ccc7cc(C#N)cnc76)cc5NC(C)C)nn4)CC3)CC1)n(C)c(=O)n2C1CCC(=O)NC1=O (some centres unmarked) [I-295] | 10 to 50 |
| COc1cc2nn([C@H]3CC[C@H](CN4CCN(c5cccc6c5n(C)c(=O)n6C5CCC(=O)NC5=O)CC4)CC3)cc2cc1NC(=O)c1cncc(C(F)(F)F)n1 (some centres unmarked) [I-297] | < 10 |
